Here are results for 1 molecule from US12059405B1, “3-(2,4,5-tris(4-chlorophenyl)-1H-imidazol-1-yl) propanoic acid as an antimicrobial compound” (KING FAISAL UNIVERSITY, priority 2023, dated 2024).

Type in all cases: cell-based
The test system of one assay is Staphylococcus aureus. Description: Agar plate disc-diffusion, antibacterial, Staphylococcus aureus. Particulars: nutrient agar, 37° C., 48 hours, DMSO control zone subtracted. The method, then:
(§1) The agar plate disc-diffusion method was applied. […] The discs were then placed onto the surface of agar plates (nutrient agar for bacteria and Sabouraud's dextrose agar for fungi) seeded with the test organism. Each plate contained 15 mL of the agar medium, previously seeded with 0.2 mL of the broth culture of each organism pregrown for 18 hours. The plates were incubated at 37° C. for 48 hours, and 72 hours for fungi. The inhibition zones was measured in mm. Discs impregnated with DMSO were used as a control, and its inhibition zone was subtracted from the tested compound actual inhibition zone.

Another assay concerns Aspergillus flavus. Description: Agar plate disc-diffusion, antifungal, Aspergillus flavus. Conditions: Sabouraud's dextrose agar, 37° C., 72 hours, DMSO control zone subtracted. The method, then: as §1
For another assay, the system named is Bacillus cereus. Description: Agar plate disc-diffusion, antibacterial, Bacillus cereus. Particulars: nutrient agar, 37° C., 48 hours, DMSO control zone subtracted. On the procedure:
as §1

A further assay has as its system Escherichia coli. Description: Agar plate disc-diffusion, antibacterial, Escherichia coli. Particulars: nutrient agar, 37° C., 48 hours, DMSO control zone subtracted. The method, then: as §1
For assay [1], the system named is Chrysosporium keratinophilum. Description: Agar plate disc-diffusion, antifungal, Chrysosporium keratinophilum. Conditions: Sabouraud's dextrose agar, 37° C., 72 hours, DMSO control zone subtracted. The method, then:
as §1

The next assay has as its system Pseudomonas aeruginosa. Description: Agar plate disc-diffusion, antibacterial, Pseudomonas aeruginosa. Conditions: nutrient agar, 37° C., 48 hours, DMSO control zone subtracted. On the procedure:
as §1

Setting [2] is: A = concentration of comp. = 10,000 μL.
Setting [3] is: B = concentration of comp. = 30,000 μL.
[4] abbreviates: C = concentration of comp. = 50,000 μL.

Consider `O=C(O)CCn1c(-c2ccc(Cl)cc2)nc(-c2ccc(Cl)cc2)c1-c1ccc(Cl)cc1` [V, 3-(2,4,5-tris(4-chlorophenyl)-1H-imidazol-1-yl)propanoic acid], for which, in the assay on Staphylococcus aureus (setting [2]), the “inhibition zone, Staphylococcus aureus, A” value was 19 mm. For the same molecule, in the assay on Staphylococcus aureus (setting [3]), the “inhibition zone, Staphylococcus aureus, B” value was 23 mm. The “inhibition zone, Staphylococcus aureus, C” value in the assay on Staphylococcus aureus (setting [4]) came to 36 mm. The “inhibition zone, Aspergillus flavus, A” value with Aspergillus flavus (setting [2]) was determined as 19 mm. The “inhibition zone, Aspergillus flavus, B” value in the assay with Aspergillus flavus (setting [3]) was 24 mm. In the assay with Aspergillus flavus (setting [4]), the “inhibition zone, Aspergillus flavus, C” value is recorded as 32 mm. Moreover, the “inhibition zone, Bacillus Cereus, A” value in the assay on Bacillus cereus (setting [2]) came out at 21 mm. For the same molecule, in the assay with Bacillus cereus (setting [3]), the “inhibition zone, Bacillus Cereus, B” value was 29 mm. The “inhibition zone, Bacillus Cereus, C” value in the assay on Bacillus cereus (setting [4]) came out at 38 mm. The “inhibition zone, Escherichia coli, A” value in the assay on Escherichia coli (setting [2]) came out at 27 mm. Moreover, the “inhibition zone, Escherichia coli, B” value with Escherichia coli (setting [3]) was found to be 36 mm. Moreover, in the assay on Escherichia coli (setting [4]), the “inhibition zone, Escherichia coli, C” value amounted to 48 mm. Moreover, in assay [1] (setting [2]), the “inhibition zone, Chrysosporium keratinophilum, A” value turned out to be 25 mm. For the same molecule, the “inhibition zone, Chrysosporium keratinophilum, B” value in assay [1] (setting [3]) is recorded as 26 mm. In assay [1] (setting [4]), the “inhibition zone, Chrysosporium keratinophilum, C” value is on record as 45 mm. Moreover, the “inhibition zone, Pseudomonas aeruginosa, A” value with Pseudomonas aeruginosa (setting [2]) is on record as 25 mm. In addition, the “inhibition zone, Pseudomonas aeruginosa, B” value in the assay on Pseudomonas aeruginosa (setting [3]) was 26 mm. For the same molecule, the “inhibition zone, Pseudomonas aeruginosa, C” value in the assay with Pseudomonas aeruginosa (setting [4]) turned out to be 37 mm.
